# Earlier results, collected in patent US7354574B2, “Treatment of ocular disease” (Advanced Ocular Systems Limited, priority 2002, dated 2008).
# Conditions: administered systemically
smiles,measurement,value
C=CC[C@@H]1/C=C(\C)C[C@H](C)C[C@H](OC)[C@H]2O[C@@](O)(C(=O)C(=O)N3CCCC[C@H]3C(=O)O[C@H](/C(C)=C/[C@@H]3CC[C@@H](O)[C@H](OC)C3)[C@H](C)[C@@H](O)CC1=O)[C@H](C)C[C@@H]2OC [tacrolimus],Renal and hepatic toxicity,significant renal and hepatic toxicity
